Reference: PMC10417336 (Animals : an Open Access Journal from MDPI, 2023)
Where “and” joins values, the source holds several entries; their conditions need not be identical. Equal entries are not always repeated. Where two headings read alike, the source gives them in different places.

How the values were obtained:
[1] = tested on: rainbow trout (Oncorhynchus mykiss); settings: cited from earlier work
[2] = Table 1, source not given; cited from earlier work
[3] = tested on: sea cucumbers (Apostichopus japonicus); settings: cited from earlier work
Danio rerio = settings: listed as SDZ; cited from earlier work
[4] = tested on: common carp (Cyprinus carpio); settings: cited from earlier work
[5] = tested on: lambari (Astyanax bimaculatus); settings: for T1/2, half-life time: t1/2=ln2/Ke
Method: The feed used in the experiment was purchased commercially and contained 45% protein (GuabiTech, Campinas, SP, Brazil). The amount of ^14C SDZ (Sigma-Aldrich; Saint Louis, MO, USA, Hen- 5154X Riedel) used in the experiment was the one that gave the lowest reading signal in the liquid scintillation spectrometer. Thus, the amount of feed per fish was the equivalent of 1% of body weight, 12 mg·day^−1, totaling 3528 mg of feed contaminated with 5540.38 Bq of radioactive product. The feed was homogenized after the application of the ^14C SDZ to ensure that all of the drug was evenly distributed in the feed. For confirmation, seven 50 mg samples of contaminated feed were used for the liquid scintillation spectrometer reading.
The bioaccumulation and depletion study using lambari was conducted to evaluate how the elimination of the SDZ molecule works after treatment. The experiment was performed based on the guidelines of the Organization for Economic Cooperation and Development standard no. 305 [17] and VICH-FDA [18], with adaptations for the use of radiolabeled molecules.
The lambari fingerlings were acquired from a commercial fish farm, without distinction between male and female. A total of 100 healthy fish were placed in a tank with 200 L of (chlorine-free) water. The acclimatization took place over 15 days, during which the fish were fed three times daily with commercial fish food. The water temperature was maintained at 25 °C ± 1 °C and pH 7. Feeding of the fry was stopped 24 h before the experiment.
The tests were divided into two stages, seven days of exposure and seven days of depuration. After the acclimatization process, 84 fish (approximately 5 cm long and weighing approximately 1.0 to 1.4 g) were used in the experiment. The experiment was conducted in 8 L stainless steel tanks with three replicates and two controls, with 14 fish placed in each tank. The water temperature was maintained at 25 °C ± 1 °C, pH 7, under permanent aeration, with a 12 h photoperiod. Water temperature and pH were analyzed daily.
The exposure phase of the fish to the antibiotic lasted 7 consecutive days, during which the medicated feed was offered three times a day. Control fish were fed uncontaminated feed. For the depletion phase, the remaining lambaris were transferred to clean tanks with 4 L of water and fed uncontaminated feed three times a day. It is worth noting that one fish was randomly selected and sampled during the exposure (days 1, 2, 3, 4, 5, 6, and 7) and depletion (8, 9, 10, 11, 12, 13, and 14) periods of each tank; the selected lambari was euthanized with a 0.2 mg.mL^−1 benzocaine immersion bath and frozen for later analysis.
Fish samples were burned in the Oxidizer OX500 (RJ—Harvey Instrument Corporation, Buffalo, NY, USA) in an oxygen-rich atmosphere, where 10 mL of scintillation liquid (permafluor) was used per sample. Measurement was by liquid scintillation counting (LSC) with a Tri-Carb 2910 TR LSA counter (Perkin Elmer, Waltham, MA, USA).
On day 7 (the last day of bioaccumulation) and day 14 (the last day of depletion), the aquarium water was filtered through filter paper (Whatman 42) to collect background material (metabolic excrement). The analyses of the excreta were conducted in the same way as the procedures described for fish. In addition, water samples from each aquarium were sampled in triplicate at the exposure phase (beginning and end) to determine the radiolabeled molecule, using liquid scintillation counters (LSC) with a Tri-Carb 2910 TR LSA counter (Perkin Elmer).

## Nc1ccc(S(=O)(=O)Nc2ncccn2)cc1 [Sulfadiazine, 4-Amino-N-(2-pyrimidinyl)benzenesulfonamide]
[1]
  BCF: 4100 L/kg
  concentration of SDZ in the organisms on the seventh day of depletion: 1.0 × 10^−4 mg·g ^−1
[1]; day 4, SDZ fed in the diet 0.0330 μg·mg^−1
  highest accumulation of SDZ in the organisms: 5.10 × 10 ^−4 mg·g^−1
[2]
  Log P: −0.09
[3]
  BCF: 2.1 to 891.5 L/kg
Danio rerio
  bioaccumulated amount of SDZ: 4.15 Bq and 5.41 Bq
  eliminated amount of SDZ: 3.79 Bq and 5.21 Bq
[4]
  BCF: 2.73 to 165.73 L/kg
[5]; after two days of the depletion phase (7–9 days)
  accumulated SDZ eliminated by the organisms: 93.12%
[5]; column Bioaccumulation, model fit
  ke, elimination constant: 0.3956 day⁻¹
[5]; column Depletion, model fit
  A, pre-exponential term: 186.2 ng/g
  ku, absorption constant: 0.6155 mL/g/day
[5]; column Depletion, listed as 14C-sulfadiazine
  T1/2, half-life time: 27.02 h
[5]; column Depletion, listed as SDZ
  T1/2, half-life time: 27.1 h
[5]; day 7 of exposure, medicated feed 2.5 mg·g^−1 three times a day, listed as SDZ
  maximum (peak) concentration of SDZ in fish: 91.7 ng/g and 91.72 ng/g
[5]; day 13, end of experiment
  concentration of SDZ in fish after depletion phase: 0.83 ng/g
[5]; depletion phase period (7–13 days)
  accumulated 14C-SDZ eliminated by the fish: 93.12%
[5]; depletion, abstract
  concentration of SDZ in excreta in the depletion period: 5.96 ng/g
[5]; during exposure (bioaccumulation) and elimination (depletion) phases
  concentration of SDZ in fish relative to the MRL: < 100 ng/g
[5]; elimination 7–13 days
  concentration of SDZ in excreta (sediment), elimination (depletion) phase: 5.9e-06 mg/g
  concentration of SDZ in the water, depletion phase: 0.025 ng/mL
[5]; end of exposure phase, abstract
  concentration of SDZ in excreta after the bioaccumulation period: 363.5 ng/g
[5]; exposure 1–7 days
  concentration of SDZ in excreta (sediment), exposure phase (Bioaccumulation): 0.00036 mg/g
  concentration of SDZ in the water, end of exposure phase (Bioaccumulation): 4.6 ng/mL
[5]; lambari, BCF=Ca/Cw
  bioconcentration factor (BCF): 20 L/kg
[5]; mass balance
  SDZ applied in the diet bioaccumulated in the fish (mass balance): 0.21%
  SDZ applied in the diet remaining in the excreta (mass balance): 0.69%
  SDZ applied in the diet remaining in the water (mass balance): 115%
